The NIST ThermoML archive (doi:10.1016/j.jct.2014.04.016)
Where “and” joins values, the source holds several entries; their conditions need not be identical. Equal values may be shown once.

Test: xn = mol fraction of the nth substance listed
Conditions: 100 kPa; for electrical conductivity: Alternating current cell with electrodes; for mass density: Vibrating tube method; for viscosity: Concentric cylinders viscometry

CCCCCCCCOS(=O)(=O)[O-].CCn1cc[n+](C)c1 [1-ethyl-3-methylimidazolium octyl sulfate] + O
Conditions	electrical conductivity	mass density [kg/m3]	viscosity
251.8 K, Glass, x1 = 0.5001	0.013 S/m	–	–
251.9 K, Glass, x1 = 0.5001	0.014 S/m	–	–
254.1 K, Glass, x1 = 0.5001	0.016 S/m and 0.017 S/m	–	–
255.1 K, Glass, x1 = 0.5001	0.018 S/m	–	–
256.1 K, Glass, x1 = 0.5001	0.02 S/m	–	–
257.1 K, Glass, x1 = 0.4688	0.023 S/m	–	–
257.1 K, Glass, x1 = 0.5001	0.022 S/m	–	–
258.1 K, Glass, x1 = 0.5001	0.023 S/m	–	–
259.1 K, Glass, x1 = 0.4688	0.028 S/m	–	–
259.1 K, Liquid, x1 = 0.5001	0.025 S/m	–	–
261.1 K, Glass, x1 = 0.4688	0.032 S/m and 0.031 S/m	–	–
261.1 K, Liquid, x1 = 0.0803	0.56 S/m	–	–
261.1 K, Liquid, x1 = 0.5001	0.029 S/m	–	–
263.1 K, Glass, x1 = 0.2119	0.228 S/m	–	–
263.1 K, Glass, x1 = 0.4688	0.036 S/m and 0.038 S/m	–	–
263.1 K, Liquid, x1 = 0.0586	0.703 S/m	–	–
263.1 K, Liquid, x1 = 0.0803	0.611 S/m	–	–
263.1 K, Liquid, x1 = 0.5001	0.034 S/m	–	–
264.1 K, Glass, x1 = 0.1197	0.479 S/m	–	–
265.1 K, Liquid, x1 = 0.0803	0.667 S/m and 0.622 S/m	–	–
266.1 K, Glass, x1 = 0.4688	0.045 S/m	–	–
266.1 K, Liquid, x1 = 0.0803	0.688 S/m	–	–
267.1 K, Glass, x1 = 0.4688	0.049 S/m	–	–
268.1 K, Glass, x1 = 0.1197	0.566 S/m	–	–
268.1 K, Glass, x1 = 0.2119	0.29 S/m	–	–
268.1 K, Glass, x1 = 0.4108	0.085 S/m	–	–
268.1 K, Glass, x1 = 0.4688	0.051 S/m	–	–
268.1 K, Liquid, x1 = 0.0401	0.898 S/m	–	–
268.1 K, Liquid, x1 = 0.0586	0.867 S/m	–	–
268.1 K, Liquid, x1 = 0.0803	0.755 S/m and 0.753 S/m	–	–
268.1 K, Liquid, x1 = 0.4688	0.052 S/m	–	–
268.1 K, Liquid, x1 = 0.5001	0.048 S/m	–	–
269.1 K, Glass, x1 = 0.1197	0.591 S/m and 0.59 S/m	–	–
269.1 K, Liquid, x1 = 0.0586	0.897 S/m	–	–
269.1 K, Liquid, x1 = 0.1197	–	1084.1	–
269.1 K, Liquid, x1 = 0.4688	0.054 S/m	–	–
269.6 K, Glass, x1 = 0.4108	–	–	16300 mPa·s
269.6 K, Liquid, x1 = 0.4108	–	1107.2	–
270.1 K, Glass, x1 = 0.1197	0.617 S/m and 0.616 S/m	–	19170 mPa·s
270.1 K, Glass, x1 = 0.4108	–	–	5510 mPa·s
270.1 K, Liquid, x1 = 0.0401	0.968 S/m	–	–
270.1 K, Liquid, x1 = 0.1197	–	1083.7	–
270.1 K, Liquid, x1 = 0.4108	–	1107	–
270.1 K, Liquid, x1 = 0.4688	0.059 S/m and 0.058 S/m	–	–
270.6 K, Glass, x1 = 0.4108	–	–	2431 mPa·s
270.6 K, Liquid, x1 = 0.4108	–	1106.7	–
271.1 K, Glass, x1 = 0.1197	0.641 S/m and 0.639 S/m	–	16390 mPa·s
271.1 K, Glass, x1 = 0.4108	0.1 S/m	–	1385 mPa·s
271.1 K, Liquid, x1 = 0.0803	0.862 S/m	–	–
271.1 K, Liquid, x1 = 0.1197	–	1083.1	–
271.1 K, Liquid, x1 = 0.4108	–	1106.4	–
271.6 K, Glass, x1 = 0.4108	–	–	889.3 mPa·s
271.6 K, Liquid, x1 = 0.4108	–	1106.1	–
272.1 K, Glass, x1 = 0.1197	0.667 S/m	–	11470 mPa·s
272.1 K, Glass, x1 = 0.4108	0.104 S/m	–	–
272.1 K, Liquid, x1 = 0.0401	1.03 S/m	–	–
272.1 K, Liquid, x1 = 0.1197	0.666 S/m	1082.6	–
272.1 K, Liquid, x1 = 0.4108	–	1105.7	609.1 mPa·s
273.1 K, Glass, x1 = 0.1197	–	–	9033 mPa·s
273.1 K, Glass, x1 = 0.1402	0.597 S/m	–	–
273.1 K, Glass, x1 = 0.2119	0.371 S/m and 0.368 S/m	–	–
273.1 K, Glass, x1 = 0.3076	0.203 S/m	–	–
273.1 K, Glass, x1 = 0.3555	0.147 S/m	–	–
273.1 K, Glass, x1 = 0.4108	0.111 S/m	–	–
273.1 K, Liquid, x1 = 0.0401	1.07 S/m	–	–
273.1 K, Liquid, x1 = 0.0586	1.04 S/m	–	–
273.1 K, Liquid, x1 = 0.0803	0.921 S/m	–	–
273.1 K, Liquid, x1 = 0.1197	0.695 S/m	1082	–
273.1 K, Liquid, x1 = 0.4108	–	1105	564.7 mPa·s
273.1 K, Liquid, x1 = 0.4688	0.073 S/m and 0.07 S/m	–	–
273.1 K, Liquid, x1 = 0.5001	0.066 S/m	–	–
274.1 K, Glass, x1 = 0.1197	–	–	6783 mPa·s
274.1 K, Liquid, x1 = 0.1197	0.723 S/m	1081.5	–
274.1 K, Liquid, x1 = 0.4108	0.117 S/m	1104.3	524.2 mPa·s
275.1 K, Glass, x1 = 0.1197	–	–	4354 mPa·s
275.1 K, Liquid, x1 = 0.1197	0.75 S/m	1080.9	–
275.1 K, Liquid, x1 = 0.4108	0.123 S/m	1103.6	487.1 mPa·s
276.1 K, Glass, x1 = 0.1197	–	–	2361 mPa·s
276.1 K, Glass, x1 = 0.3555	0.169 S/m	–	–
276.1 K, Liquid, x1 = 0.0803	1.02 S/m	–	–
276.1 K, Liquid, x1 = 0.1197	–	1080.3	–
276.1 K, Liquid, x1 = 0.4688	0.086 S/m	–	–
277.1 K, Glass, x1 = 0.1197	–	–	1248 mPa·s
277.1 K, Glass, x1 = 0.3555	0.181 S/m	–	–
277.1 K, Liquid, x1 = 0.1197	0.807 S/m and 0.806 S/m	1079.7	–
277.6 K, Glass, x1 = 0.3555	–	–	5137 mPa·s
277.6 K, Liquid, x1 = 0.3555	–	1100	–
277.9 K, Glass, x1 = 0.3555	–	–	2995 mPa·s and 2875 mPa·s
277.9 K, Liquid, x1 = 0.3555	–	1099.9	–
278.1 K, Glass, x1 = 0.1402	0.731 S/m and 0.732 S/m	–	–
278.1 K, Glass, x1 = 0.1605	0.677 S/m	–	–
278.1 K, Glass, x1 = 0.2119	0.46 S/m	–	–
278.1 K, Glass, x1 = 0.3076	0.259 S/m and 0.258 S/m	–	–
